A value given as a limit tells only on which side of the number the result lay.

The target of the experiment is T1, MLLT1 (Homo sapiens, UniProt Q03111).
T1 construct: endogenous in cells; host or cells: MV4-11 (ATCC CRL-9591)
T1 sequence (Q03111 1-559): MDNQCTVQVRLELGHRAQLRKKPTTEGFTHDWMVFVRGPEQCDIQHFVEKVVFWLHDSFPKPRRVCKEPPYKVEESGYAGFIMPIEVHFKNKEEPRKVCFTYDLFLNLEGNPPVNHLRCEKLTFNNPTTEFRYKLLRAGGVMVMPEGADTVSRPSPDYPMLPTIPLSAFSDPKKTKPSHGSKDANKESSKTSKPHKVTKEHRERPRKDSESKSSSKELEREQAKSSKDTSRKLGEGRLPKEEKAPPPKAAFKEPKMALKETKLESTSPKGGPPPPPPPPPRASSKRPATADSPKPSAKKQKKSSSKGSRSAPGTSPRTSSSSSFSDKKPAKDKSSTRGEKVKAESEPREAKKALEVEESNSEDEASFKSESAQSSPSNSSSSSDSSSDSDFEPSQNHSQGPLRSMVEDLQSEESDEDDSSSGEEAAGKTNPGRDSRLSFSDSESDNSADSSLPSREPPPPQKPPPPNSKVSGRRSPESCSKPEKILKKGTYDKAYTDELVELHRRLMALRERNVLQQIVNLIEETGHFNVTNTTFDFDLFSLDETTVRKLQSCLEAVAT
As to the kind of experiment: MLLT1 degradation assay (JESS automated chemiluminescent detection) in MV4-11 cells. The following applies: 24h, with respect to DMSO control. Type of experiment: cell-based. Here is the method: MLLT1 degradation efficacy of compounds was tested in an automated chemiluminescent detection system (JESS, Cat# 004-650). MV4-11 (#CRL-9591, ATCC) cells were seeded at a density of 1.2 million cells/well in a non-treated 6-well cell culture plate in 2.4 mL of complete medium (IMDM + 10% FBS + 1X Penicillin-Streptomycin). 10 mM DMSO stocks were prepared, and cells were treated with three concentrations of test compounds viz. 1000, 100 and 10 nM at a final DMSO concentration of 0.1% and incubated for 24h at 37°C, 5% CO2. Post incubation, cells were centrifuged, washed with HBSS and lysed in 70 uL of RIPA buffer supplemented with Protease inhibitors (sc-24948; Santa Cruz). Subsequently, protein estimation was done using BCA protein assay kit (23225; Pierce). 4 ug protein lysate (4 uL of 1ug/uL lysate) was loaded into each well of the JESS cartridge (SM-WO01; Bio-techne) and the JESS run was performed using 1:900 dilution of anti-human MLLT1 antibody (14893; Cell signaling technology) and 1:1200 dilution of anti-human GAPDH antibody (2118; Cell signaling technology) with anti-rabbit secondary detection module (DM-001; Bio-Techne). Post run, data were analysed using "Compass for SW" software for chemiluminescent detection. The peak area for each band was used for the calculation of MLLT1 degradation with respect to DMSO control. Data is shown as "MLLT1 % degradation". Category A: A ≥ 75% degradation Category B: 50% ≤ B < 75% degradation Category C: 25% ≤ C < 50% degradation Category D: D < 25% degradation Table 1

As for `Cc1nn(CCCCCCCC#Cc2cccc(C3CCC(=O)NC3=O)c2F)c2cc(C(=O)Nc3cc4[nH]c([C@H]5CCCN5C)cc4cn3)ccc12` (stereo partly drawn) [Example 61, 1-(9-(3-(2,6-dioxopiperidin-3-yl)-2-fluorophenyl)non-8-yn-1-yl)-3-methyl-N-(2-((R)-1-methylpyrrolidin-2-yl)-1H-pyrrolo [3,2-c]pyridin-6-yl)-1H-indazole-6-carboxamide], the inhibition at 0.01 µM fell in the range of 25 to 50%, the inhibition at 0.1 µM is no less than 75% and the inhibition at 1 µM was no less than 75%.

Compound `Cc1nn(CCCCCCCC#Cc2cccc3c2CN(C2CCC(=O)NC2=O)C3=O)c2cc(C(=O)Nc3cc4[nH]c([C@H]5CCCN5C)c(C#N)c4cn3)ccc12` (stereo partly drawn) [Example 66, N-(3-cyano-2-((R)-1-methylpyrrolidin-2-yl)-1H-pyrrolo[3,2-c]pyridin-6-yl)-1-(9-(2-(2,6-dioxopiperidin-3-yl)-1-oxoisoindolin-4-yl)non-8-yn-1-yl)-3-methyl-1H-indazole-6-carboxamide] returned an inhibition at 0.01 µM of no less than 75%, an inhibition at 0.1 µM of no less than 75% and an inhibition at 1 µM of no less than 75%.

`Cc1nn(CCCOCC#Cc2cccc3c2CN(C2CCC(=O)NC2=O)C3=O)c2cc(C(=O)Nc3cc4[nH]c([C@H]5CCCN5C)cc4cn3)ccc12` (stereo partly drawn) [Example 31, 1-(3-((3-(2-(2,6-dioxopiperidin-3-yl)-1-oxoisoindolin-4-yl)prop-2-yn-1-yl)oxy)propyl)-3-methyl-N-(2-((R)-1-methylpyrrolidin-2-yl)-1H-pyrrolo[3,2-c]pyridin-6-yl)-1H-indazole-6-carboxamide] gave an inhibition at 0.01 µM of 25 to 50%, an inhibition at 0.1 µM of 50 to 75% and an inhibition at 1 µM of no less than 75%.

Compound `Cc1nn(CCCCCCCC#Cc2ccc(F)c3c2CN(C2CCC(=O)NC2=O)C3=O)c2cc(C(=O)Nc3cc4[nH]c([C@H]5CCCN5C)c(Cl)c4cn3)ccc12` (stereo partly drawn) [Example 67, N-(3-chloro-2-((R)-1-methylpyrrolidin-2-yl)-1H-pyrrolo[3,2-c]pyridin-6-yl)-1-(9-(2-(2,6-dioxopiperidin-3-yl)-7-fluoro-1-oxoisoindolin-4-yl)non-8-yn-1-yl)-3-methyl-1H indazole-6-carboxamide] gave an inhibition at 0.01 µM of no less than 75%, an inhibition at 0.1 µM of no less than 75% and an inhibition at 1 µM of no less than 75%.

`Cc1nn(CCCCCCCCNc2cccc3c2C(=O)N(C2CCC(=O)NC2=O)C3=O)c2cc(C(=O)Nc3cc4[nH]c([C@@H]5CCCN5C)cc4cn3)ccc12` (stereo partly drawn) [Example 4, 1-(8-{[2-(2,6-dioxopiperidin-3-yl)-1,3-dioxoisoindol-4-yl]amino}octyl)-3-methyl-N-{2-[(2S)-1-methylpyrrolidin-2-yl]-1H-pyrrolo [3,2-c]pyridin-6-yl}indazole-6-carboxamide] gave an inhibition at 0.01 µM of less than 25%, an inhibition at 0.1 µM of less than 25% and an inhibition at 1 µM of 50 to 75%.

The compound `Cc1nn(CCCCCCCC#Cc2cccc3c2CN(C2CCC(=O)NC2=O)C3=O)c2cc(C(=O)Nc3cc4[nH]c([C@H]5CC6(CC6)CN5C)cc4cn3)ccc12` (stereo in doubt) [Example 56, 1-(9-(2-(2,6-dioxopiperidin-3-yl)-1-oxoisoindolin-4-yl)non-8-yn-1-yl)-3-methyl-N-(2-((rel-R)-5-methyl-5-azaspiro[2.4]heptan-6-yl)-1H-pyrrolo[3,2-c]pyridin-6-yl)-1H-indazole-6-carboxamide] came in with an inhibition at 0.01 µM of no less than 75%, an inhibition at 0.1 µM of no less than 75% and an inhibition at 1 µM of no less than 75%.

`Cc1nn(C2CCN(CC3CCN(c4cccc5c4C(=O)N(C4CCC(=O)NC4=O)C5=O)CC3)CC2)c2cc(C(=O)Nc3cc4[nH]c([C@H]5CCCN5C)cc4cn3)ccc12` (stereo partly drawn) [Example 71, 1-(1-((1-(2-(2,6-dioxopiperidin-3-yl)-1,3-dioxoisoindolin-4-yl)piperidin-4-yl)methyl)piperidin-4-yl)-3-methyl-N-(2-((R)-1-methylpyrrolidin-2-yl)-1H-pyrrolo[3,2-c]pyridin-6-yl)-1H-indazole-6-carboxamide] displayed an inhibition at 0.01 µM of 50 to 75%, an inhibition at 0.1 µM of no less than 75% and an inhibition at 1 µM of no less than 75%.

For orientation: inhibition means the percentage by which the read-out fell short of the control. Lower therefore signals a response near the control.
